Paper PMC4723341, “Ribonuclease H/DNA Polymerase HIV-1 Reverse Transcriptase Dual Inhibitor: Mechanistic Studies on the Allosteric Mode of Action of Isatin-Based Compound RMNC6” (PLoS ONE, 2016)

What was measured:
[1] = target: HIV-1 RT-associated RDDP activity, HIV-1 group O RT (Human immunodeficiency virus type 1 group O, UniProt Q79666); experiment: RDDP activity assay, HIV-1 group O RT; assay type: biochemical; settings: read-out: IC50 RDDP
Source text: Recombinant HIV-1 group O RT was expressed and purified as previously described. It was obtained as a heterodimer composed of subunits of 66 and 51 kDa, with a polyhistidine tag at the C-terminus of p66. For this purpose, the RT p66 subunit encoded within a p66RTB expression vector was co-expressed with the HIV-1 protease in E. coli XL-1 Blue, and the obtained heterodimers were then purified by ionic exchange followed by chromatography on Ni2+-nitriloacetic acid agarose. The enzyme was quantified by active site titration before biochemical studies.
RNA-dependent DNA polymerase (RDDP) activity was measured as described in 25 μL volume containing 60 mM Tris-HCl buffer pH 8.1, 8 mM MgCl2, 60 mM KCl, 13 mM DTT, 2.5 μM poly(A)-oligo(dT), 100 μM dTTP, increasing concentrations of inhibitors, whose dilution were made in water, and different amounts of enzymes according to a linear range of dose-response curve: 6 ng wt RT; 30 ng K103N RT; 12 ng V106ART; 19 ng V108A RT; 1.51.5 ng Y181C RT; 45 ng Y188A RT; 15 ng Y188L RT; 30 ng E224A RT; 15 ng P225A RT; 18 ng P226A RT; 23 ng F227A RT; 15 ng L228A RT; 30 ng W229A RT; 30 ng M230A RT; 15 ng G231A RT; 15 ng N474A RT; 15 ng Y501A RT; 15 ng A502F RT; 19 ng A508V RT; 38 ng HIV-1 group O RT. After enzyme addition, the reaction mixture was incubated for 30 min at 37°C and the stopped by addition of EDTA. […]

p66/p51 HIV-1 RT = target: T1, p66/p51 HIV-1 RT (Human immunodeficiency virus type 1 group M subtype B, UniProt P04585); experiment: Thermal stability by differential scanning fluorimetry; assay type: binding; settings: increasing concentrations of inhibitor
T1 construct: The 1:1 ration between the p66/p51 subunits was also verified; made in house; host or cells: E. coli M15
Description: Thermal stability assays were performed according to Nettleship et al.. […] The mixture was heated from 30 to 90°C in increments of 0.2°C. Fluorescence intensity was measured using excitation and emission wavelengths of 483 and 568 nm, respectively. Changes in protein thermal stability (ΔTm) upon inhibitor binding were analyzed by using the LightCycler 480 software. All assays were performed in triplicate.

Row | SMILES | IC50 [1] | Tm decrease of HIV-1 RT (p66/p51 HIV-1 RT)
1 | O=C1Nc2ccc(Cl)cc2[C@@](C#CC2CC2)(C(F)(F)F)O1 [EFV, Efavirenz, reference compound] | 212 ± 46 nM | 
2 | Cc1sc2nc(-c3ccc(O)c(O)c3)[nH]c(=O)c2c1C [VU, 2-(3,4-dihydroxyphenyl)-5,6-dimethylthieno[2,3-d]pyrimidin-4(3H)-one] |  | 0.5−5.5 °C
